Literature values as cited in US20060029543A1, “Treatment of B-cell lymphoma” (priority 2004, published 2006).

Conditions: received more than 200 milligrams per meter squared of doxorubicin

Which “Left ventricular dysfunction, long-term survivors affected” value does the source give for `COc1cccc2c1C(=O)c1c(O)c3c(c(O)c1C2=O)C[C@@](O)(C(=O)CO)C[C@@H]3O[C@H]1C[C@H](N)[C@H](O)[C@H](C)O1` [doxorubicin] here?
Its value is 8 of 57.
